Paper PMC10765884, “MC180295 is a highly potent and selective CDK9 inhibitor with preclinical in vitro and in vivo efficacy in cancer” (Clinical Epigenetics, 2024)
pIC50: −log10 of the molar value. Like-named read-outs stand apart in the source and are kept apart here.

Columns and labels:
Pharmacokinetics in rats = format: in vivo; details: rat, plasma, iv, 1 mg/kg; for AUC(0-t): read-out: AUC24hr; for Vd: read-out: Vss
CT26.CL25 cells = test: CT26.CL25 colon cancer model in B6 mice with/without CD8 depletion; format: in vivo; details: CT26.CL25 s.c. in B6 mice, MC180295 20 mg/kg i.p. q.o.d., DAC 0.5 mg/kg i.p. daily
Description: Fig. 5 Survival and antitumor effects of MC180295, DAC, or their combination, with/without CD8 + T cells. A 20 mg/kg MC180295 was administered (i.p.) q.o.d. 0.5 mg/kg DAC was administered (i.p.) daily. Mouse survival in days. B Survival of B6 mice, after CD8 depletion, using an anti-CD8 antibody. 20 mg/kg MC180295 was administered (i.p.) q.o.d. 0.5 mg/kg DAC was administered (i.p.) daily. C Antitumor effects of MC180295 with and without CD8 depletion, using an anti-CD8 antibody. B6 mice were inoculated (s.c.) with 5 × 10^5 CT26.CL25 cells. Eight days later, when tumors were palpable, 20 mg/kg MC180295 was administered (i.p.) q.o.d. 0.5 mg/kg DAC was administered (i.p.) daily. Tumor sizes were measured using a caliper and calculated over vehicle. D Antitumor effects of DAC, with and without CD8 depletion, using an anti-CD8 antibody. B6 mice were inoculated (s.c.) with 5 × 10^5 CT26.CL25 cells. Eight days later, when tumors were palpable, 20 mg/kg MC180295 was administered (i.p.) q.o.d. 0.5 mg/kg DAC was administered (i.p.) daily. Tumor sizes were measured using a caliper and calculated over vehicle. E Antitumor effects of DAC + MC180295, with and without CD8 depletion, using an anti-CD8 antibody. B6 mice were inoculated (s.c.) with 5 × 10^5 CT26.CL25 cells. Eight days later, when tumors were palpable, 20 mg/kg MC180295 was administered (i.p.) q.o.d. 0.5 mg/kg DAC was administered (i.p.) daily. Tumor sizes were measured using a caliper and calculated over vehicle. Significances were calculated using log-rank (Mantel-Cox) or Student's T tests. Data shown as means ± SEMs
For the s.c. SW48 model, 2 × 10^6 cells were injected into the flanks of randomly assigned, gender-matched 8–10-week-old NSG mice. 20 mg/kg MC180379, MC180380, or MC180295 was injected (i.p.), every other day, when the tumors were palpable, 11 days after engraftment, until endpoints were met. Mice were sacrificed before tumor volumes exceeded 400 mm^2 (endpoint for this model). For the s.c. HT29 model, 2 × 10^6 cells were injected into the flanks of randomly assigned, gender-matched, 8–10-week-old NSG mice. […]

CDK9/cyclin K = molecular target: T1, CDK9/cyclin K (Homo sapiens, UniProt P50750); test: CDK enzymatic assay; format: biochemical; details: Fig. 1A
T1 construct: purchased Reaction Biology Corp
T1 sequence (P50750 whole entry): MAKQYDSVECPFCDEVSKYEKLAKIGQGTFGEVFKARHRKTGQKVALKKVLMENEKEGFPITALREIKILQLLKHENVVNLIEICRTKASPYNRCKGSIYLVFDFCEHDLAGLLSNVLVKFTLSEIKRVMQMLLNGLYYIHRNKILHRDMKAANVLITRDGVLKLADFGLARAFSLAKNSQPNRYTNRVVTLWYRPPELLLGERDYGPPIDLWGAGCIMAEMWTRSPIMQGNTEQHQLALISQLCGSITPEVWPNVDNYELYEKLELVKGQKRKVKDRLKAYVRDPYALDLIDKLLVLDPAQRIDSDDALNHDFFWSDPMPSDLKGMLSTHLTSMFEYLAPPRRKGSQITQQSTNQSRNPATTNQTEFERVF
T1 sequence (O75909 whole entry partner): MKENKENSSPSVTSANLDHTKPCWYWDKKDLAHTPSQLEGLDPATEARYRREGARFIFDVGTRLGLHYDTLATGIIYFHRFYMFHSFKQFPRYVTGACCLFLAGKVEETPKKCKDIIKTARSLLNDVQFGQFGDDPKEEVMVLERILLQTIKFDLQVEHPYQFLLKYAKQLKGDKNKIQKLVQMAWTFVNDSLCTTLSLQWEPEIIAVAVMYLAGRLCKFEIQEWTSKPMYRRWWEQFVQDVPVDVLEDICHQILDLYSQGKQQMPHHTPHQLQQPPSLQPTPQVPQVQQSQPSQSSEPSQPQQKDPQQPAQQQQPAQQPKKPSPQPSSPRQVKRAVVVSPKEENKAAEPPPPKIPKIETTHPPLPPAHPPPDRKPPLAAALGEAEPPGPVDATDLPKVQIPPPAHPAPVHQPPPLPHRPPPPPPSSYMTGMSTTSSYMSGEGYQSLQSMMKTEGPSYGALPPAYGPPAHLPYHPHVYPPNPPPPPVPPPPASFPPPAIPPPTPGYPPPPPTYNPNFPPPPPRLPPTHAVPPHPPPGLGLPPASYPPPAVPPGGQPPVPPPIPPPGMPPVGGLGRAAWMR
Description: (§1) CDK enzymatic assays were performed by Reaction Biology Corp. (Malvern, PA), using 10 µM ATP for determining MC180295 IC50 values for each CDK family member for which assays were available. Kinase enzymatic assays were also performed by Nanosyn (Santa Clara, CA), using microfluidic technology and MC180295 IC50 curves against 10 CDKs. Selectivity against CDK9 was confirmed for the enantiomers at Reaction Biology Corp. (Malvern, PA).

CDK6-Cyclin D3 = molecular target: T2, CDK6-Cyclin D3 (Homo sapiens, UniProt Q00534); test: CDK enzymatic assay; format: biochemical; details: Fig. 1A
T2 construct: purchased Nanosyn
T2 sequence (Q00534 whole entry): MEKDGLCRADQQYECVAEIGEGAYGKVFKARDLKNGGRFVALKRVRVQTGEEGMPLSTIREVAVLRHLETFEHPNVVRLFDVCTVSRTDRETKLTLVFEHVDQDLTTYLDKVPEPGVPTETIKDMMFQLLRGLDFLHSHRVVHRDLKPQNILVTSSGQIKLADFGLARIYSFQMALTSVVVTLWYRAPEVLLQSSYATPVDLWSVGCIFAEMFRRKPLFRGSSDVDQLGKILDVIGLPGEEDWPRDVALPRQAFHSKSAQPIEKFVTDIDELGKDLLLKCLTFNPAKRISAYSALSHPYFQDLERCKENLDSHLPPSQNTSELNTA
T2 sequence (P30281 whole entry partner): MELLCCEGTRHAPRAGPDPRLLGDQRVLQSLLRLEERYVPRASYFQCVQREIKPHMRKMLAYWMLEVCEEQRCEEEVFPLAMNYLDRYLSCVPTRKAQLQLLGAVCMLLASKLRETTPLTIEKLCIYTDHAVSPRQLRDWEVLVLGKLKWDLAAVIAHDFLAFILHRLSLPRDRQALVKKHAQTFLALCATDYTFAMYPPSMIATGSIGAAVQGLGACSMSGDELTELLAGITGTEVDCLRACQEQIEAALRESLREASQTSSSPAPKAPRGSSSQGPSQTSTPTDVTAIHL
Description: as §1

CDK9/cyclin T1 = CDK9/cyclin T1 (Homo sapiens, UniProt P50750); test: CDK enzymatic assay; format: biochemical; details: Fig. 1A
CDK9/cyclin T1, sequence (P50750 whole entry): as the sequence (P50750 whole entry) above
CDK9/cyclin T1, sequence (O60563 whole entry partner): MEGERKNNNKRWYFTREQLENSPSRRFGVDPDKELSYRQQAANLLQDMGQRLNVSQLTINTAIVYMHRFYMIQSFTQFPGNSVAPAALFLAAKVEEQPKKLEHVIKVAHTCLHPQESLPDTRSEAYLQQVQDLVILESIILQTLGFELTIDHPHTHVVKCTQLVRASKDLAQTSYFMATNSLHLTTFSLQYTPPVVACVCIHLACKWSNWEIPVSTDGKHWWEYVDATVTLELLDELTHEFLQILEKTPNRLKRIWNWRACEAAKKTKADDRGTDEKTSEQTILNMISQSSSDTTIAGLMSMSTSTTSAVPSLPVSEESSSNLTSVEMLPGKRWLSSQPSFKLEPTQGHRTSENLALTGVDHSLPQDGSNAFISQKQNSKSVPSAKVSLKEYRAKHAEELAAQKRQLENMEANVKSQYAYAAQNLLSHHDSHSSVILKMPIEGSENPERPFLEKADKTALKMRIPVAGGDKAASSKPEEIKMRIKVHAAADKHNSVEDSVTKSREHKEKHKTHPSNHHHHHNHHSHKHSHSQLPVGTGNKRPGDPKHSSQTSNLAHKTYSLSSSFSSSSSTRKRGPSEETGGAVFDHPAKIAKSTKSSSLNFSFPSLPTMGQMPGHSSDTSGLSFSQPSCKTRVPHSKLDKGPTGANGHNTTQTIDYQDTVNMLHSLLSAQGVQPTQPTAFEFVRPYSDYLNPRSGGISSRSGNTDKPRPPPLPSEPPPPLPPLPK
Description: as §1

CDK19/cyclin C = molecular target: T3, CDK19/cyclin C (Homo sapiens, UniProt Q9BWU1); test: CDK enzymatic assay; format: biochemical; details: Fig. 1A
T3 construct: purchased Reaction Biology Corp
T3 sequence (Q9BWU1 whole entry): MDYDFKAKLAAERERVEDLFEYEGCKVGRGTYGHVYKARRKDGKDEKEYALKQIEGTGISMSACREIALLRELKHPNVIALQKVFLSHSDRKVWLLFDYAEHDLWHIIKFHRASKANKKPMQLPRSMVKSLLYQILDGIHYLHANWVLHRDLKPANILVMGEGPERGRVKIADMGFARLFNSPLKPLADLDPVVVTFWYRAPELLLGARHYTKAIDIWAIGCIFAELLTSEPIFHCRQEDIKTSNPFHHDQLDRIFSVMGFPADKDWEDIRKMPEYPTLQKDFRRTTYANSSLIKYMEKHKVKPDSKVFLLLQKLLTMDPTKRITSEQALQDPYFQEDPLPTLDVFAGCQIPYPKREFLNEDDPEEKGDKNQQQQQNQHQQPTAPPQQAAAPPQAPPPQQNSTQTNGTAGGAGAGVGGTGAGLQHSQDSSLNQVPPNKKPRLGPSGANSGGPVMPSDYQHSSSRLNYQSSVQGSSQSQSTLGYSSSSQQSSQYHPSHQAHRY
T3 sequence (P24863 whole entry partner): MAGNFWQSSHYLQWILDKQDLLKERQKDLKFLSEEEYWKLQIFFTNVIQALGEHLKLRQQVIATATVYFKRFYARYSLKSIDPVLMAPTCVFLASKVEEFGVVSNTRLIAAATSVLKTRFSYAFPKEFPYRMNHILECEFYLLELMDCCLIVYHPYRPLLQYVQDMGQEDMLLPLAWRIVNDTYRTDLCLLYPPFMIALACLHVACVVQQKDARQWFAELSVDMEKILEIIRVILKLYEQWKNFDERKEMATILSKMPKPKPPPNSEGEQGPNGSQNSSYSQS
Description: as §1

CDK8/cyclin C = molecular target: T4, CDK8/cyclin C (Homo sapiens, UniProt P49336); test: CDK enzymatic assay; format: biochemical; details: Fig. 1A
T4 construct: purchased Reaction Biology Corp
T4 sequence (P49336 whole entry): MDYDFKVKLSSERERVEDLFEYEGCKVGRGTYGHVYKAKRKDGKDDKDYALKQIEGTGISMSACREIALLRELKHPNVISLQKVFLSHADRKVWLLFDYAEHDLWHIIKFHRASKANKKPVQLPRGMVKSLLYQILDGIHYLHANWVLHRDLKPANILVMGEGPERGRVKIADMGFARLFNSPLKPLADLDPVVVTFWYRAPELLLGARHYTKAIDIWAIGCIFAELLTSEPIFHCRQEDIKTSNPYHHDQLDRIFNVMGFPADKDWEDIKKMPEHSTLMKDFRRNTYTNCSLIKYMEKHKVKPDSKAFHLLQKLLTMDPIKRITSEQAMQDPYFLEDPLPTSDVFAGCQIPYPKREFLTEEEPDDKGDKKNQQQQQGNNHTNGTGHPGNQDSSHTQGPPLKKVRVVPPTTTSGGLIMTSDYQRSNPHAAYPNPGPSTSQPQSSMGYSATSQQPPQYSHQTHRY
T4 sequence (P24863 whole entry partner): as the sequence (P24863 whole entry partner) above
Description: as §1

[1] = tested on: 46 cell lines representing 6 different malignancies; test: Growth inhibition in a panel of cancer cell lines; format: cell-based; details: 6 malignancies, read-out: median IC50
Description: The live-cell assay for GFP reactivation in YB5 cells was done as previously described. Cells were treated with a single dose of drug 24 h after seeding at low density, and GFP fluorescence measured in a Millipore Guava flow cytometer (EMD, Millipore) instrument, or by imaging in a Cytation instrument (Agilent). Cancer cell lines (listed in Additional file 1: Fig. S1A) were obtained from ATCC or the Temple/Fox Chase Cellular Repository and cultured in the recommended medium. To measure growth inhibition, cells were seeded in 96-well plates at 40% confluency. Fresh medium was changed the next day and drugs were added directly. Drug-free fresh medium was changed on the fourth day. The cells were collected on day 5 by trypsin, suspended in medium, mixed with trypan blue (Thermo Fisher Scientific) (1:1 ratio), and counted using a LUNA II automated cell counter. Each sample was counted at least three times, and average numbers used for the analysis. Each treatment condition was performed in biological triplicates.

Nc1nc(N[C@H]2C[C@@H]3CC[C@H]2C3)sc1C(=O)c1ccccc1[N+](=O)[O-] (relative stereo) [MC180295]
half-life (Pharmacokinetics in rats; given IV to rats, read-out: half-life (converted)): ~14 h | Cmax (Pharmacokinetics in rats; rats, IV 1 mg/kg, Mean): 0.635 µg/mL | clearance (Pharmacokinetics in rats; rats, IV 1 mg/kg, Mean): 5.2 mL/min | AUC(0-t) (Pharmacokinetics in rats; rats, IV 1 mg/kg, Mean): 0.679 µg·h/mL | half-life (Pharmacokinetics in rats; rats, IV 1 mg/kg, Mean, read-out: T1/2 (converted)): 14 h | Vd (Pharmacokinetics in rats; rats, IV 1 mg/kg, Mean): 4.46 L | Cmax (Pharmacokinetics in rats; rats, IV 1 mg/kg, Rat -1): 0.385 µg/mL | clearance (Pharmacokinetics in rats; rats, IV 1 mg/kg, Rat -1): 6.4 mL/min | AUC(0-t) (Pharmacokinetics in rats; rats, IV 1 mg/kg, Rat -1): 0.47 µg·h/mL | half-life (Pharmacokinetics in rats; rats, IV 1 mg/kg, Rat -1, read-out: T1/2 (converted)): 17.9 h | Vd (Pharmacokinetics in rats; rats, IV 1 mg/kg, Rat -1): 6.87 L | Cmax (Pharmacokinetics in rats; rats, IV 1 mg/kg, Rat -2): 0.568 µg/mL | clearance (Pharmacokinetics in rats; rats, IV 1 mg/kg, Rat -2): 5.1 mL/min | AUC(0-t) (Pharmacokinetics in rats; rats, IV 1 mg/kg, Rat -2): 0.687 µg·h/mL | half-life (Pharmacokinetics in rats; rats, IV 1 mg/kg, Rat -2, read-out: T1/2 (converted)): 9.98 h | Vd (Pharmacokinetics in rats; rats, IV 1 mg/kg, Rat -2): 3.74 L | Cmax (Pharmacokinetics in rats; rats, IV 1 mg/kg, Rat -3): 0.951 µg/mL | clearance (Pharmacokinetics in rats; rats, IV 1 mg/kg, Rat -3): 4.1 mL/min | AUC(0-t) (Pharmacokinetics in rats; rats, IV 1 mg/kg, Rat -3): 0.879 µg·h/mL | half-life (Pharmacokinetics in rats; rats, IV 1 mg/kg, Rat -3, read-out: T1/2 (converted)): 14 h | Vd (Pharmacokinetics in rats; rats, IV 1 mg/kg, Rat -3): 2.76 L | survival (CT26.CL25 cells): extended survival | tumor size (CT26.CL25 cells): significantly decreased tumor size | pIC50 (CDK9/cyclin K): 7.31 | pIC50 (CDK6-Cyclin D3): 6.15 | pIC50 (CDK9/cyclin T1): 7.92 | pIC50 (CDK19/cyclin C): 6.09 | pIC50 (CDK8/cyclin C): 6.30 | pIC50 [1]: 6.77
